From ChEMBL document CHEMBL1136141, “2-Phenyl-5,6-dihydro-2H-thieno[3,2-c]pyrazol-3-ol derivatives as new inhibitors of bacterial cell wall biosynthesis” (Bioorg Med Chem Lett, 2003)
≈ marks a conversion by molar mass, not a printed value.

What was measured:
[1] = Partition coefficient (logP); assay type: physicochemical; details: octanol/water
[2] = test system: Bacteria; experiment: Minimum inhibitory activity against gram negative bacteria; assay type: functional
[3] = molecular target: T1, UDP-N-acetylenolpyruvoylglucosamine reductase (Staphylococcus aureus, UniProt P61431); experiment: In vitro inhibitory activity against Staphylococcus aureus UDP-N-acetylmuramate dehydrogenase
T1 sequence (P61431 whole entry): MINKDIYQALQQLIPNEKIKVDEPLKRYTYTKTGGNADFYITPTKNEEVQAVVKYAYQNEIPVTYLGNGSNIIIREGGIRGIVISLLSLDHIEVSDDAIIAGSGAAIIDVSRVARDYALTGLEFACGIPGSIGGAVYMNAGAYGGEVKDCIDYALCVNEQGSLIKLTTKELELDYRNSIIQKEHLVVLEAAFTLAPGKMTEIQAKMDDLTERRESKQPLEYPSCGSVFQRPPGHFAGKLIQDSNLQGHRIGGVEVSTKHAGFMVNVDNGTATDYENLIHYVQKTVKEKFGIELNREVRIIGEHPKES

[4] = test system: Escherichia coli; experiment: Minimum inhibitory activity against Escherichia coli GC 4559; assay type: functional
[5] = molecular target: T2, UDP-N-acetylmuramoylalanine--D-glutamate ligase (Staphylococcus aureus, UniProt P0A091); experiment: In vitro inhibitory activity against Staphylococcus aureus UDP-N-acetylmuramoyl-L-alanyl-D-glutamate synthetase
T2 sequence (P0A091 whole entry): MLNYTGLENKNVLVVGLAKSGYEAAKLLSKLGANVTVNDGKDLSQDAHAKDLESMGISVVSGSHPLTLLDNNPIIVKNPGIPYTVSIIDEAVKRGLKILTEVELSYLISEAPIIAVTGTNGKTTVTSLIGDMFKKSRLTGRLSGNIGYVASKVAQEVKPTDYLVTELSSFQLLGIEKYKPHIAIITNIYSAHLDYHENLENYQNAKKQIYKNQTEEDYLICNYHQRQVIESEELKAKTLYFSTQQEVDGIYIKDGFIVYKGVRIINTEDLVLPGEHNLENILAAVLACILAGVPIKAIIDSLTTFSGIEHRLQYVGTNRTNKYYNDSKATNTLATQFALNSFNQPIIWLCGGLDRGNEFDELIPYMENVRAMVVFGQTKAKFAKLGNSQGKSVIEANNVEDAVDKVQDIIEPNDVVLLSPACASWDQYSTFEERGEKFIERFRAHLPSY

[6] = test system: Enterococcus faecalis; experiment: Minimum inhibitory activity against Enterococcus faecalis GC 4555 (ATCC); assay type: functional
[7] = test system: Staphylococcus aureus; experiment: Minimum inhibitory activity against Staphylococcus aureus GC 1131 (MRSA); assay type: functional
[8] = Minimum inhibitory activity against Streptococcus pneumoniae GC1894 (PRSP); assay type: functional
[9] = test system: Staphylococcus aureus; experiment: Minimum inhibitory activity against Staphylococcus aureus GC 2216 (ATCC); assay type: functional
[10] = Minimum inhibitory activity against MSCNS GC 646; assay type: functional; details: Staphylococcus
[11] = test system: Enterococcus faecalis; experiment: Minimum inhibitory activity against Enterococcus faecalis GC 2242 (VRE); assay type: functional
[12] = test system: Staphylococcus aureus; experiment: Minimum inhibitory activity against Staphylococcus aureus GC 4543 (MSSA); assay type: functional
[13] = molecular target: T3, UDP-N-acetylmuramate--L-alanine ligase (Staphylococcus aureus, UniProt O31211); experiment: In vitro inhibitory activity against Staphylococcus aureus UDP-N-acetylmuramoyl-L-alanine synthetase
T3 sequence (O31211 whole entry): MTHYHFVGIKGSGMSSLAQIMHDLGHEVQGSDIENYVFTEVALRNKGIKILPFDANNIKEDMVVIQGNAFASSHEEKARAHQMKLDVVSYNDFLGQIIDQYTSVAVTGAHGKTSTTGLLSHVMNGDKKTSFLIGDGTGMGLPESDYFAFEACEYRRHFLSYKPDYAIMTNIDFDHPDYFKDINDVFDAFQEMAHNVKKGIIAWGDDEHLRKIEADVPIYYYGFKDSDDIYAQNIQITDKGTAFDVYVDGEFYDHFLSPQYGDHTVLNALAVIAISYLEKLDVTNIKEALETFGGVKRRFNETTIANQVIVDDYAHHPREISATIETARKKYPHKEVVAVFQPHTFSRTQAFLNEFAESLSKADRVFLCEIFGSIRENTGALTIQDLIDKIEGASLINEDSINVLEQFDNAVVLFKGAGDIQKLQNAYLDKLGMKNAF

[14] = Minimum inhibitory activity in presence of 4% bovine serum albumin against Streptococcus pneumoniae GC1894 (PRSP); assay type: functional
[15] = test system: Escherichia coli; experiment: Minimum inhibitory activity against Escherichia coli GC 4560; assay type: functional

| logP [1] | MIC [2] | IC50 [3] | MIC [4] | IC50 [5] | MIC [6] | MIC [7] | MIC [8] | MIC [9] | MIC [10] | MIC [11] | MIC [12] | IC50 [13] | MIC [14] | MIC [15] | Compound |
| --- | --- | --- | --- | --- | --- | --- | --- | --- | --- | --- | --- | --- | --- | --- | --- |
| 2.01 | > 128 µg/mL | 66 µM | – | – | – | – | – | – | – | – | – | – | – | – | [O-][S+]1CCc2nn(-c3ccc(Cl)c(Cl)c3)c(O)c21 (stereo unspecified) |
| 1.41 | – | > 95.7 µM | > 128 µg/mL | 47.8 µM | 64 µg/mL (≈ 245 µM) | 128 µg/mL (≈ 490 µM) | 8 µg/mL (≈ 30.6 µM) | 128 µg/mL (≈ 490 µM) | > 128 µg/mL | 32 µg/mL (≈ 122 µM) | 64 µg/mL (≈ 245 µM) | > 95.7 µM | > 128 µg/mL | 128 µg/mL (≈ 490 µM) | NC(=O)c1cccc(-n2nc3c(c2O)SCC3)c1 |
| 3.62 | – | 38.3 µM | > 128 µg/mL | 48.8 µM | 128 µg/mL (≈ 446 µM) | 32 µg/mL (≈ 111 µM) | 4 µg/mL (≈ 13.9 µM) | 8 µg/mL (≈ 27.9 µM) | 16 µg/mL (≈ 55.7 µM) | 64 µg/mL (≈ 223 µM) | 8 µg/mL (≈ 27.9 µM) | 24.4 µM | > 128 µg/mL | 128 µg/mL (≈ 446 µM) | Oc1c2c(nn1-c1ccc(Cl)c(Cl)c1)CCS2 |
